Publication PMC6199744, “Development of Chemical Proteomics for the Folateome and Analysis of the Kinetoplastid Folateome” (ACS Infectious Diseases, 2018)
Where two headings read alike, the source gives them in different places.

Tested on: T. brucei lysate proteins
Type: binding, Trypanosoma brucei

Nc1nc2cccc(-c3ccccc3)c2n1Cc1ccc(Cl)c(Cl)c1 [compound 3]
fold change - vehicle control (protein TB927.7.5340 HY[…], CONSERVED): 0.45
fold change - vehicle control (protein TB927.7.7430 ATP SYNTHASE ALPHA CHAIN, MIT[…]): 0.95
fold change - vehicle control (protein TB927.8.1990 PEROXIDOXIN): 0.95
fold change - vehicle control (protein TB927.8.4720 AMINO ACID TRANSPORTER, PUTATIVE): 0.82
fold change - vehicle control (protein TB927.8.890 SMALL GTP-BINDING PROTEIN RAB1, PUTATIVE): 0.96
fold change (relative to vehicle control = 1, protein TB09.160.2550 RIBOSOMAL PROTEIN S7, PUTATIVE): 0.97
fold change (relative to vehicle control = 1, protein TB09.160.3270 ATP-DEPENDENT DEAD BOX HELICASE, PUTATIVE): 1
fold change (relative to vehicle control = 1, protein TB09.160.4250 TR[…]): 0.95
fold change (relative to vehicle control = 1, protein TB09.211.3540 GLYCEROL KINASE, GLYCOSOMAL): 0.92
fold change (relative to vehicle control = 1, protein TB11.01.1270 NUCLEIC ACID BINDING PROTEIN, PUTATIVE): 0.99
fold change (relative to vehicle control = 1, protein TB11.02.1135 DYNEIN LIGHT CHAIN, PUTATIVE): 1
fold change (relative to vehicle control = 1, protein TB11.02.2960 MIT[…] PROTEIN, PUTATIVE): 0.96
fold change (relative to vehicle control = 1, protein TB11.02.4700 14-3-3 PROTEIN): 0.87
fold change (relative to vehicle control = 1, protein TB11.03.0815 DYNEIN LIGHT CHAIN): 0.99
fold change (relative to vehicle control = 1, protein TB427TMP.01.0480 HY[…], CONSERVED): 0.95
fold change (relative to vehicle control = 1, protein TB427TMP.01.1400 GLYCYL-TRNA SYNTHETASE, PUTATIVE): 0.9
fold change (relative to vehicle control = 1, protein TB427TMP.01.1680 POLYUBIQUITIN, PUTATIVE): 0.93
fold change (relative to vehicle control = 1, protein TB427TMP.01.1830 HY[…], CONSERVED): 1
fold change (relative to vehicle control = 1, protein TB427TMP.01.3370 […] PROTEIN, PUTATIVE): 0.94
fold change (relative to vehicle control = 1, protein TB427TMP.01.6880 CYTOSOLIC COAT PROTEIN, PUTATIVE): 0.81
fold change (relative to vehicle control = 1, protein TB427TMP.01.7530 HY[…], CONSERVED): 0.93
fold change (relative to vehicle control = 1, protein TB427TMP.02.1120 ADENYL[…], PUTATIVE): 0.99
fold change (relative to vehicle control = 1, protein TB427TMP.02.1460 HY[…], CONSERVED): 0.95
fold change (relative to vehicle control = 1, protein TB427TMP.02.2120 NUCLEOPORIN 48): 0.94
fold change (relative to vehicle control = 1, protein TB427TMP.02.2970 KINESIN, PUTATIVE): 0.91
fold change (relative to vehicle control = 1, protein TB427TMP.02.3120 MALIC ENZYME, PUTATIVE): 0.82
fold change (relative to vehicle control = 1, protein TB427TMP.02.4550 HY[…], CONSERVED): 1
fold change (relative to vehicle control = 1, protein TB427TMP.02.5450 GLUCOSE-REGULATED PROTEIN 78, PUTATIVE): 0.93
fold change (relative to vehicle control = 1, protein TB427TMP.03.0090 RIBOKINASE, PUTATIVE): 0.84
fold change (relative to vehicle control = 1, protein TB427TMP.160.4770 PROTEIN KINASE, PUTATIVE): 0.93
fold change (relative to vehicle control = 1, protein TB427TMP.160.4910 FLAVOPROTEIN MONOOXYGENASE, PUTATIVE): 0.97
fold change (relative to vehicle control = 1, protein TB427TMP.18.0005 HY[…], CONSERVED): 0.93
fold change (relative to vehicle control = 1, protein TB427TMP.22.0004 HY[…], CONSERVED): 0.97
fold change (relative to vehicle control = 1, protein TB427TMP.39.0006 T[…] EIF2B DELTA SUBUNIT, PUTATIVE): 0.9
fold change (relative to vehicle control = 1, protein TB427.01.4050 PROTEIN P[…] EF-HAND DOMAINS (PPEF)): 0.93
fold change (relative to vehicle control = 1, protein TB427.02.1170 RETRO[…] SPOT (RHS) PROTEIN, PUTATIVE): 0.96
fold change (relative to vehicle control = 1, protein TB427.02.6220 ADENOSINE TRANSPORTER 2, PUTATIVE): 0.98
fold change (relative to vehicle control = 1, protein TB427.03.3160 POLY(A) POLYMERASE): 0.77
fold change (relative to vehicle control = 1, protein TB427.03.3560 HY[…], CONSERVED): 0.83
fold change (relative to vehicle control = 1, protein TB427.03.5420 PROTEIN TRANSPORT PROTEIN SEC24): 0.9
fold change (relative to vehicle control = 1, protein TB427.04.1510 PHOSPHOLIPID-TRA[…], PUTATIVE): 0.86
fold change (relative to vehicle control = 1, protein TB427.05.2320 HY[…], CONSERVED): 0.8
fold change (relative to vehicle control = 1, protein TB427.05.300 THYMINE-7-HYDROXYLASE, PUTATIVE): 0.82
fold change (relative to vehicle control = 1, protein TB427.05.4530 FATTY ACID ELONGASE, PUTATIVE): 0.77
fold change (relative to vehicle control = 1, protein TB427.05.520 STOMATIN-LIKE PROTEIN, PUTATIVE): 1
fold change (relative to vehicle control = 1, protein TB427.06.2550 RNA-BINDING PROTEIN, PUTATIVE): 1.2
fold change (relative to vehicle control = 1, protein TB427.06.3650 ADP-RI[…], PUTATIVE): 0.91
fold change (relative to vehicle control = 1, protein TB427.06.3860 HY[…], CONSERVED): 0.97
fold change (relative to vehicle control = 1, protein TB427.07.2340 40S RIBOSOMAL PROTEIN S15, PUTATIVE): 0.87
fold change (relative to vehicle control = 1, protein TB427.07.2570 MRNA […], PUTATIVE): 0.63
fold change (relative to vehicle control = 1, protein TB427.07.4180 FATTY ACID ELONGASE, PUTATIVE): 0.92
fold change (relative to vehicle control = 1, protein TB427.07.7500 THYMINE-7-HYDROXYLASE, PUTATIVE): 0.88
fold change (relative to vehicle control = 1, protein TB427.08.3150 T-COMPLEX PROTEIN 1, GAMMA SUBUNIT, PUTATIVE): 0.99
fold change (relative to vehicle control = 1, protein TB427.08.3490 HY[…], CONSERVED): 0.95
fold change (relative to vehicle control = 1, protein TB427.08.5460 FLAGELLAR CALCIUM-BINDING PROTEIN): 0.72
fold change (relative to vehicle control = 1, protein TB427.08.6110 HY[…], CONSERVED): 0.82
fold change (relative to vehicle control = 1, protein TB427.10.11930 NAD OR NADP DEPENDENT OXIDOREDUCTASE, PUTATIVE): 0.78
fold change (relative to vehicle control = 1, protein TB427.10.12510 P-TYPE H+-ATPASE, PUTATIVE): 1
fold change (relative to vehicle control = 1, protein TB427.10.13110 DYNEIN LIGHT CHAIN, PUTATIVE): 0.88
fold change (relative to vehicle control = 1, protein TB427.10.13880 HY[…], CONSERVED): 0.88
fold change (relative to vehicle control = 1, protein TB427.10.14140 PYRUVATE KINASE 1): 0.93
fold change (relative to vehicle control = 1, protein TB427.10.14910 SA[…] GLYCOPROTEIN, PUTATIVE): 0.83
fold change (relative to vehicle control = 1, protein TB427.10.15180 […] PROTEIN, PUTATIVE): 1.2
fold change (relative to vehicle control = 1, protein TB427.10.2350 PYRUVATE DEH[…] E3 BINDING PROTEIN, PUTATIVE): 1
fold change (relative to vehicle control = 1, protein TB427.10.4940 NUCLEAR DBF2-RELATED KINASE): 0.8
fold change (relative to vehicle control = 1, protein TB427.10.7630 HY[…], CONSERVED): 0.97
fold change (relative to vehicle control = 1, protein TB427.10.9800 60S RIBOSOMAL PROTEIN L22): 0.82
fold change (relative to vehicle control = 1, protein TB927.10.13360 […] TU, PUTATIVE): 0.96
fold change (relative to vehicle control = 1, protein TB927.1.2330 BETA TUBULIN): 0.96
fold change (relative to vehicle control = 1, protein TB927.1.2400 ALPHA TUBULIN): 0.96
fold change (relative to vehicle control = 1, protein TB927.10.3280 60S RIBOSOMAL PROTEINS L38, PUTATIVE): 0.99
fold change (relative to vehicle control = 1, protein TB927.10.4180 TFIIF-[…] PHOSPHATASE, PUTATIVE): 0.97
fold change (relative to vehicle control = 1, protein TB927.10.4690 DYNEIN LIGHT CHAIN, PUTATIVE): 0.9
fold change (relative to vehicle control = 1, protein TB927.10.5330 40S RIBOSOMAL PROTEIN S18, PUTATIVE): 0.74
fold change (relative to vehicle control = 1, protein TB927.10.6670 DYNEIN LIGHT CHAIN, PUTATIVE): 0.92
fold change (relative to vehicle control = 1, protein TB927.2.2440 […]-ATPASE SUBUNIT 6): 2.27
fold change (relative to vehicle control = 1, protein TB927.3.1120 GTP-BINDING NUCLEAR PROTEIN RTB2, PUTATIVE): 0.9
fold change (relative to vehicle control = 1, protein TB927.3.3490 HIGH MOBILITY GROUP PROTEIN, PUTATIVE): 0.89
fold change (relative to vehicle control = 1, protein TB927.3.4360 40S RIBOSOMAL PROTEIN S15A, PUTATIVE): 1.3
fold change (relative to vehicle control = 1, protein TB927.4.4650 […] SYNTHASE, PUTATIVE): 0.72
fold change (relative to vehicle control = 1, protein TB927.5.1930 HY[…], CONSERVED): 0.83
fold change (relative to vehicle control = 1, protein TB927.6.4140 PAR[…] COMPONENT, PUTATIVE): 0.9
fold change (relative to vehicle control = 1, protein TB927.7.2500 […] SUBUNIT 1): 0.91
fold change (relative to vehicle control = 1, protein TB927.7.4500 HY[…], CONSERVED): 0.87
fold change (relative to vehicle control = 1, protein TB927.8.1510 ATP-DEPENDENT DEAD/H RNA HELICASE, PUTATIVE): 1
fold change (vs vehicle control, protein TB09.160.3710 PRO[…] NUCLEAR ANTIGEN (PCNA), PUTATIVE): 0.94
fold change (vs vehicle control, protein TB11.01.4370 HY[…], CONSERVED): 0.98
fold change (vs vehicle control, protein TB427TMP.01.8510 T-COMPLEX PROTEIN 1, ALPHA SUBUNIT, PUTATIVE): 0.9
fold change (vs vehicle control, protein TB427.01.1670 HY[…], CONSERVED): 0.93
fold change (vs vehicle control, protein TB427.03.4750 AMINOPEPTIDASE, PUTATIVE): 0.96
fold change (vs vehicle control, protein TB427.05.3170 RIBOSE-PHOSPHATE PYROPHOSPHOKINASE, PUTATIVE): 0.92
fold change (vs vehicle control, protein TB427.06.1070 HY[…], CONSERVED): 0.95
fold change (vs vehicle control, protein TB427.06.4890 S-ADENOSYL[…], PUTATIVE): 0.98
fold change (vs vehicle control, protein TB427.08.3660 PROTEIN TRANSPORT PROTEIN SEC23): 0.95
fold change (vs vehicle control, protein TB427.10.10980 HEAT SHOCK PROTEIN 83): 0.99
fold change (vs vehicle control, protein TB427.10.11760 PUMILIO/PUF RNA BINDING PROTEIN 6): 0.91
fold change (vs vehicle control, protein TB427.10.14550 ATP-DEPENDENT DEAD/H RNA HELICASE, PUTATIVE): 0.99
fold change (vs vehicle control, protein TB427.10.2290 CHAPERONE PROTEIN DNAJ, PUTATIVE): 0.93
fold change (vs vehicle control, protein TB927.5.1630 HY[…], CONSERVED): 0.91
fold change (vs vehicle control, protein TB927.6.4980 40S RIBOSOMAL PROTEIN S14): 1.1
